Test results: patent publication US20220096452A1, “LOCAL ANESTHETIC FOR THE TREATMENT OF NEUROLOGICAL SYMPTOMS RESULTING FROM BRAIN DYSFUNCTIONS” (ICM (INSTITUT DU CERVEAU ET DE LA MOELLE ÉPINIÈRE), priority 2019, published 2022)
Entries after “also recorded” stand apart in the source; their conditions may differ.

Legend:
Type in all cases: in vivo, human
[1] = system: patient who suffered from almost complete cortical blindness following a bilateral occipital stroke; experiment: General neurological examination; details: either off or on Mepivacaine
Text: Apart from the patient's visual status, […] general neurological examination was normal, either off or on Mepivacaine. They had no sensory or motor impairment, no abnormalities of the cranial nerves, no cognitive deficit (MMSE=29/30, FAB 16/18, Five Words Test 10/10). There was no psychiatric symptoms, except for a depressive mood whenever the patient was off medication and virtually blind.

[2] = system: patient who suffered from almost complete cortical blindness following a bilateral occipital stroke; experiment: Resting state functional MRI connectivity, on vs off periods
Method: Resting state fMRI is a method of functional magnetic resonance imaging (fMRI) that is used in brain mapping to evaluate regional interactions that occur in a resting or task-negative state, when an explicit task is not being performed. We gathered MRI images while the patient was at rest with their eyes closed, during off and on periods. Those data were analyzed using the CONN toolbox (https://web.conn-toolbox.org/home). We report here two results providing pathophysiological correlates of vision recovery in the patient's right visual hemifield under Mepivacaine.
The left early visual cortex (or calcarine cortex) is the entry gate into the brain of visual information from the right hemifield. […] We predicted that whatever its underlying mechanism, functional recovery implies a restoration of functional communication between the left calcarine cortex and distant cortical areas.
We predicted that the restoration of vision should be accompanied with an overall increase of connectivity between the visual system and the rest of the brain. We computed for each voxel of the brain the average connectivity with the rest of the brain (or “intrinsic connectivity”), and studied the changes of this value between off and on periods.

[3] = system: patient who suffered from almost complete cortical blindness following a bilateral occipital stroke; experiment: 18F-FDG PET-scan brain metabolism, on vs off periods
[4] = system: patient who suffered from almost complete cortical blindness following a bilateral occipital stroke; experiment: Neurovisual evaluation (BORB and other tests) during on periods
Text: As shown in the table below, during on periods, all tests involving visual perception were normal, except for a mild deficit in the Facial recognition test, with no discernible impairment of face perception in everyday life.

[5] = system: patient who suffered from almost complete cortical blindness following a bilateral occipital stroke; experiment: Clinical assessment of vision (visual field by confrontation), on vs off periods
Text: In 2010, a patient underwent surgery for the removal of a cervical herniated intervertebral disc (C6-C7). Immediately following surgery, they suffered from a dissection of their right vertebral artery, resulting in bilateral occipital and right cerebellar infarcts. They presented initially with almost complete cortical blindness, left hemiparesis, gait instability, mild swallowing difficulties. Visual perception improved in a small peripheral part of their right visual hemifield, while all other symptoms recovered fully.
The inverse phenomenon took place, over about 1 minute, during the transition from on to off periods.

[6] = system: patient who suffered from almost complete cortical blindness following a bilateral occipital stroke; experiment: Visual field assessment, full-threshold Humphrey visual field (HVF), 24-2 SITA
Text: Those clinical observations were supported and refined by assessment of the visual field with the full-threshold Humphrey visual field (HVF), 24-2 Swedish Interactive Thresholding Algorithm (SITA) (Carl Zeiss Meditec Inc., Dublin, Calif.).
The same pattern prevailed using Goldmann perimetry.

- general neurological examination (apart from visual status) [1]: normal
SMILES: Cc1cccc(C)c1NC(=O)C1CCCCN1C (stereo not shown) [Mepivacaine, I-methyl-2′,6′-pipecoloxylidide]
- functional connectivity of right-hemispheric calcarine region (control analysis) [2]: no significant differences between on and off periods
- functional connectivity of left calcarine cortex with bilateral frontoparietal regions ([2]; FIG. 4): increase in connectivity
- functional connectivity of left calcarine cortex with mesial and lateral regions (default-mode network) ([2]; FIG. 4): decrease in correlation
- intrinsic connectivity of bilateral lateral occipital cortex with the rest of the brain ([2]; FIG. 5): increased its average functional connectivity with the rest of the brain
- metabolism in the severely lesioned right mesial occipital cortex ([3]; on and off periods): severe and constant hypometabolism
- metabolism in the intact left occipital and temporal cortex ([3]; on vs off periods, FIG. 6): significant increase in metabolism
- BORB TEST 1: Copying, score [4]: 9/9
- BORB TEST 2: Length Match Task, score [4]: 26/30
- BORB TEST 3: Size Match Task, score [4]: 28/30
- BORB TEST 4: Orientation Match Task, score [4]: 25/30
- BORB TEST 5: Position of Gap Match Task, score [4]: 37/40
- BORB TEST 7: Minimal Feature View Test, score [4]: 25/25
- BORB TEST 8: Foreshortened View Task, score [4]: 25/25
- BORB TEST 9: Drawing from Memory, score [4]: 6/6
- BORB TEST 10: Object Decision Task, score [4]: 26/32
- BORB TEST 11: Function Match Task, score [4]: 31/32
- BORB TEST 12: Associative Match Task, score [4]: 29/30
- Benton's Judgment of Line Orientation, score [4]: 14/15
- Block design test (WAIS-IV), score [4]: 53/66
- Facial recognition test (Benton, 1963), score [4]: 38/54
- Facial recognition test, in words [4]: mild deficit
- Hooper Test (Richardson and Marattoli, 1996), score [4]: 27/30
- Matrix reasoning test (WAIS-IV), score [4]: 22/26
- OD 80 picture naming test (Deloche and Hannequin, 1996), score [4]: 80/80
- all tests involving visual perception [4]: normal
- Block design test (WAIS-IV), NS ([4]; NS): 13
- Matrix reasoning test (WAIS-IV), NS ([4]; NS): 14
- BORB TEST 2: Length Match Task, z ([4]; z score): 0.56
- BORB TEST 3: Size Match Task, z ([4]; z score): 0.29
- BORB TEST 4: Orientation Match Task, z ([4]; z score): 0.08
- BORB TEST 5: Position of Gap Match Task, z ([4]; z score): 0.48
- BORB TEST 7: Minimal Feature View Test, z ([4]; z score): 0.85
- BORB TEST 8: Foreshortened View Task, z ([4]; z score): 1.31
- BORB TEST 10: Object Decision Task, z ([4]; z score): 0.45
- BORB TEST 11: Function Match Task, z ([4]; z score): 0.45
- BORB TEST 12: Associative Match Task, z ([4]; z score): 0.63
- Hooper Test (Richardson and Marattoli, 1996), z ([4]; z score): 1.30
- vision in the left hemifield (confrontation) ([5]; during on periods): dense hemianopia persisted
- vision in the right hemifield (confrontation) ([5]; during on periods): vision returned to normal in the right hemifield
- duration of transition from off to on periods (widening of spared vision to whole right hemifield) ([5]; patient description): over a matter of seconds
- duration of transition from on to off periods ([5]; patient description): about 1 minute
- visual ability of the patient ([5]; pursuant administration, single patient): improvement of visual ability
- vision in the left superior quadrant ([6]; on period / under Mepivacaine): recovered in a small paramedial island in the left superior quadrant; also recorded: extends to part of the left superior quadrant
- vision in the right hemifield (HVF) ([6]; on period, FIG. 2): vision returned to normal in the whole right hemifield, except for a small superior paracentral island
- island of right visual field corresponding to right occipital infarct ([6]; under Mepivacaine): not improved
